Consider one compound from ChEMBL document CHEMBL5154930, “Design, Synthesis, and Biological Evaluations of DOT1L Peptide Mimetics Targeting the Protein-Protein Interactions between DOT1L and MLL-AF9/MLL-ENL” (J Med Chem, 2022).

Active and inactive are the calls of the source. No cut-off for these calls is given here. Non-standard residues stand in square brackets, D forms with d. Residues, ends and D or L forms follow the SMILES beside them. *: point of attachment. X1 = C[C@H](N*)c1nc2cccc(-c3ccccc3)c2[nH]1; Ala(cPent) = N[C@@H](CC1CCCC1)C(=O)O; Pentanoyl(4-Me) = CC(C)CCC(=O)*; Dap(Me) = CNC[C@H](N)C(=O)O

The test system of experiment [1] is MOLM-13. The experiment is described as follows: Down regulation of ARID1B gene in human MOLM-13 cells by RNA-sequencing analysis. It counts as functional, cell-based.
Experiment [2] relates to MOLM-13. The experiment in a line: Down regulation of TUBA1B gene in human MOLM-13 cells by RNA-sequencing analysis. It counts as functional, cell-based.
Experiment [3] has as its system MOLM-13. The experiment is described as follows: Down regulation of GBE1 gene in human MOLM-13 cells by RNA-sequencing analysis. It counts as functional, cell-based.
In experiment [4] the test system is MOLM-13. The experiment is described as follows: Down regulation of RUNX1 gene in human MOLM-13 cells by RNA-sequencing analysis. The experiment is classed as functional, cell-based.
Experiment [5] relates to MOLM-13. The experiment in a line: Induction of apoptosis in human MOLM-13 cells at 0.25 to 1 uM assessed as cleaved PARP by Annexin V-FITC/PI staining based flow cytometry analysis. The experiment is classed as functional, cell-based. Conditions: dose 0.25-1 µM.
The test system of experiment [6] is MOLM-13. The experiment in a line: Induction of apoptosis in human MOLM-13 cells at 0.25 to 1 uM assessed as cleaved Caspase-3 by Annexin V-FITC/PI staining based flow cytometry analysis. It counts as functional, cell-based. The conditions noted are these: dose 0.25-1 µM. On the technique in general: Flow cytometry measures light scatter and fluorescence of single cells or particles in a stream.

Experiment [7] relates to MOLM-13. The experiment is described as follows: Inhibition of methylation of H3K79 in human MOLM-13 cells assessed as inhibition of methylation at HOXA3 gene cluster by chromatin immunoprecipitation assay. The experiment is classed as functional, cell-based.
Experiment [8] relates to MOLM-13. The experiment is described as follows: Inhibition of methylation of H3K79 in human MOLM-13 cells assessed as inhibition of methylation at […] gene cluster by chromatin immunoprecipitation assay. The experiment is classed as functional, cell-based.
Experiment [9] has as its system MOLM-13. The experiment in a line: Inhibition of methylation of H3K79 in human MOLM-13 cells assessed as inhibition of methylation at HOXA9 gene cluster by chromatin immunoprecipitation assay. The experiment is classed as functional, cell-based.
Experiment [10] has as its system MOLM-13. The experiment in a line: Inhibition of methylation of H3K79 in human MOLM-13 cells assessed as inhibition of methylation at HOXA13 gene cluster by chromatin immunoprecipitation assay. The experiment is classed as functional, cell-based.
For experiment [11], the system named is MOLM-13. The experiment in a line: Inhibition of methylation of H3K79 in human MOLM-13 cells assessed as inhibition of methylation at HOXA2 gene cluster by chromatin immunoprecipitation assay. It counts as functional, cell-based.
Experiment [12] concerns MOLM-13. The experiment is described as follows: Inhibition of methylation of H3K79 in human MOLM-13 cells assessed as inhibition of methylation at HOXA-AS2 gene cluster by chromatin immunoprecipitation assay. It counts as functional, cell-based.
Experiment [13] has as its system MOLM-13. The experiment is described as follows: Inhibition of methylation of H3K79 in human MOLM-13 cells assessed as inhibition of methylation at HOXA5 gene cluster by chromatin immunoprecipitation assay. The experiment is classed as functional, cell-based.
Experiment [14] has as its system MOLM-13. The experiment in a line: Inhibition of methylation of H3K79 in human MOLM-13 cells assessed as inhibition of methylation at HOXA7 gene cluster by chromatin immunoprecipitation assay. It counts as functional, cell-based.
For experiment [15], the system named is MOLM-13. The experiment in a line: Inhibition of methylation of H3K79 in human MOLM-13 cells assessed as inhibition of methylation at MEIS1 gene cluster by chromatin immunoprecipitation assay. It counts as functional, cell-based.
The subject of experiment [16] is MOLM-13. The experiment in a line: Down regulation of MEF2C gene in human MOLM-13 cells by RNA-sequencing analysis. The experiment is classed as functional, cell-based.
The test system of experiment [17] is MOLM-13. The experiment in a line: Down regulation of HOXA11 gene in human MOLM-13 cells by RNA-sequencing analysis. The experiment is classed as functional, cell-based.
For experiment [18], the system named is MOLM-13. The experiment is described as follows: Down regulation of GATA2 gene in human MOLM-13 cells by RNA-sequencing analysis. The experiment is classed as functional, cell-based.
The subject of experiment [19] is MOLM-13. The experiment in a line: cells. Conditions: Homo sapiens, MOLM-13, 120 h.
Description: Anticancer activity against human MOLM-13 cells harbouring MLL-AF9 assessed as inhibition of cell growth treated for 5 days measured by CCK-8 kit method
Experiment [20] deals with MOLM-13. The experiment is described as follows: cells. Conditions: Homo sapiens, MOLM-13, 168 h.
Description: Anticancer activity against human MOLM-13 cells harbouring MLL-AF9 assessed as inhibition of cell growth treated for 7 days measured by CCK-8 kit method
Experiment [21] deals with MOLM-13. The experiment in a line: cells. Conditions: Homo sapiens, MOLM-13, 216 h.
Description: Anticancer activity against human MOLM-13 cells harbouring MLL-AF9 assessed as inhibition of cell growth treated for 9 days measured by CCK-8 kit method

One may read the IC50 as the concentration that inhibits the measured activity by half. The low end stands for greater potency, the high end for weaker potency.

As to `CNC[C@H](NC(=O)[C@@H](NC(=O)[C@@H]1CCCN1C(=O)CCC(C)C)C(C)C)C(=O)N[C@@H](CC1CCCC1)C(=O)N[C@@H](C)c1nc2cccc(-c3ccccc3)c2[nH]1` ({Pentanoyl(4-Me)}-PV[Dap(Me)][Ala(cPent)]-X1), the outcome in experiment [1], in experiment [2], in experiment [3], in experiment [4], in experiment [5] and in experiment [6] was Active. Also, the result in experiment [16], in [17] and in [18] was Active. The inhibition entry in [7], in experiment [8], in experiment [9], in experiment [10], in experiment [11] and in experiment [12] was “Active” in each case. Besides, the inhibition entry in experiment [13], in experiment [14] and in experiment [15] was “Active” in each case. Also, the IC50 in experiment [19] worked out at 703 nM; in [20] it was 167 nM; in experiment [21], 44 nM.
